Experimental data taken from patent publication US12599614B2, “Methods and pharmaceutical compositions for the treatment and prophylaxis of microbial infectious diseases and associated inflammatory disorders and for the treatment and prophylaxis of aging and associated diseases” (MD VAULT LLC, priority 2020, dated 2026).

What was measured:
[1] = tested on: 1 year-old aged diabetic mice; test: Tissue regeneration in 1 year-old aged diabetic mice, oral gavage; format: in vivo; conditions: single agent: X alone 20 mg/kg or Y alone 4 mg/kg, daily oral gavage, 6 weeks
[2] = tested on: primary human skeletal muscle cells; test: Metabolism and gene pathway profiling of muscle cells; format: cell-based; conditions: single agent: X alone 100 mg/L or Y alone 2 mg/L
Experimental: Calorie restriction is known to ameliorate the effects of aging, by altering cellular bioenergetic stress and promoting mitochondrial activity, the unfolded protein response (UPR), the secretion of beneficial cytokines, and an increase in stem cell regeneration. To test how the drug combination X and Y mimics the effects of calorie restriction (CR), we profiled the metabolism of primary human skeletal muscle cells at passage 15 treated with X (100 mg/L) and Y (2 mg/L), compared to X alone (100 mg/L) or Y alone (2 mg/L).

[3] = tested on: adult female rats (PCOS model); test: Estrus cycles in DHEA/diet PCOS rat model; format: in vivo; conditions: daily oral gavage over 6 weeks; DHEA 60 mg/kg sc and high fat-high sugar-high cholesterol diet
Experimental: Daily oral gavage of the drug combination X and Y, relative to X alone or Y alone or the vehicle over 6 weeks, led to restoration of estrus cycles in adult female rats treated with subcutaneous dehydroepiandrosterone (DHEA; 60 mg/kg body weight) and fed with a high fat-high sugar-high cholesterol diet ad libitum to model premature ovarian aging in polycystic ovary syndrome (PCOS).

[4] = tested on: 1 year-old aged mice treated with intratracheal bleomycin; test: Bleomycin lung fibrosis in aged mice (COPD/IPF model); format: in vivo; conditions: daily oral gavage over 3 weeks; intratracheal bleomycin 3 mg/kg
Experimental: Daily oral gavage of the drug combination X and Y, relative to X alone or Y alone or the vehicle over 3 weeks, led to decreases in aging-associated lung fibrosis in 1 year-old aged mice treated with intratracheal bleomycin (3 mg/kg in 50 ul phosphate buffered saline or PBS) to model chronic obstructive pulmonary disease (COPD) and idiopathic pulmonary fibrosis (IPF).

[5] = tested on: 2-year-old aged mice; test: Senescence biomarkers in tissues of aged mice; format: in vivo; conditions: aged liver, muscle and skin tissues; ip 20 mg/kg X and/or 4 mg/kg Y daily for 30 days; vs DMSO vehicle; P<0.01
Experimental: To test if the drugs X and Y may reduce senescence in the tissues of aged mice, we intraperitoneally injected 2-year-old aged mice (n=10/group) with 20 mg/kg of X, or 4 mg/kg of Y, or both 20 mg/kg of X and 4 mg/kg of Y, relative to the DMSO vehicle control, on a daily basis for 30 days. Staining of liver, muscle and skin tissue sections for SA-β-gal activity was performed using the Senescence β-Galactosidase Staining Kit (Cell Signaling Technology) according to manufacturer's protocols. Protein expression of p16INK4A and H3K9me3 were evaluated by densitometric quantification of Westem blots of the liver, muscle and skin tissue samples.

Row | Compound | beneficial anti-aging effects seen with X and Y (liver, β islet, hair, wound, muscle regeneration, body mass) [1] | beneficial anti-aging effects seen with X and Y (ATP, acetyl-CoA, acetylation, Pink1, mitochondrial protein and DNA, UPR, ROS, cytokine and stem cell pathways) [2] | estrus cycles (vaginal smear analysis) [3] | lung fibrosis (% fibrotic area, Masson trichrome staining, ImageJ) [4] | SA-β-gal activity staining (senescence biomarker) [5]
1 | CC(=O)Oc1ccccc1C(=O)O [X, 2-acetoxybenzoic acid] | None of these beneficial anti-aging effects were observed | None of these beneficial anti-aging effects were observed | all of the rats were frozen in either the estrus or proestrus stages | None of these beneficial anti-aging effects were observed | but not X alone or Y alone
2 | COc1ccc(CN2CCNCC2)c(OC)c1OC [Y, 1-[(2,3,4-trimethoxyphenyl)methyl]piperazine] | None of these beneficial anti-aging effects were observed | None of these beneficial anti-aging effects were observed | all of the rats were frozen in either the estrus or proestrus stages | None of these beneficial anti-aging effects were observed | but not X alone or Y alone
